According to patent US11672771B2, “Beta-alethine, immune modulators, and uses thereof” (AxImmune, Inc., priority 2016, dated 2023):
“Also recorded” adds a separate entry of the source.

What was measured:
[1] = system: CD4+ or CD8+ T cells that expressed PD-1, Lag3, or Tim3; test: Checkpoint inhibitor expression and T cell percentages in blood 48 hours after one s.c. injection of β-alethine in Cloudman melanoma mice; type: in vivo, DBA mice
Description: It was hypothesized that β-alethine could affect checkpoint inhibitors expression in vivo in tumor bearing animals. […] As a baseline, blood from each animal was taken (“Cloudman preBLT”). Mice then were treated with one subcutaneous (s.c.) injection of 30 mg/kg β-alethine. 48 hours after receiving the s.c. injection of β-alethine, blood was taken (“Cloudman postBLT”). […]

[2] = system: Cloudman melanoma cancer cell line; test: Tumor size after s.c. and intratumoral β-alethine in mice with established Cloudman melanoma; type: in vivo, DBA mice
Description: At 38 days after tumor cell injection, the tumors were 17, 25 and 32 mm^2. At 38, 46, and 52 days after tumor cell injection, mice were treated with s.c. injections between the shoulder blades (distal to the tumor) of 30 mg/kg β-alethine in sterile saline (each s.c. injection of β-alethine is indicated by triangles in FIG. 2). Tumor size was monitored after each injection. […] However, the other two mice were then treated with β-alethine at 30 mg/kg intratumorally (i.t.) on day 55 post-tumor cell injection.
Further, when β-alethine was injected directly into the tumors, animals that previously had not responded or not fully responded via s.c. injection now responded, included apparent complete response.

[3] = system: Cloudman melanoma cancer cell line; test: Tumor growth with β-alethine, anti-PD-1 or both (concurrent or sequential) in Cloudman melanoma mice; type: in vivo; conditions: for tumor growth (tumor size): vs PBS, not statistically significant
Description: After confirming tumor growth, mice were randomized into the treatment groups listed in Table 4. n=10 mice in the Low Dose, High Dose, q14, untreated, and PBS groups; n=5 mice in PD-1 and BLT/PD-1 groups.
Tumor growth was measured 3 times a week. […] In the PBS treated group, there likely was an artificially low reading in the PBS group on day 23. A repeat reading of tumor size at day 25 confirmed the original trajectory. […] In addition, by day 25, the cancers in all these groups were growing at rates similar to the PBS or untreated control.
In order to further examine this dramatic result, long-term immunity after relapse was determined. In the mice treated with three doses of PD-1 alone at days 15, 18, and 21, tumor size increased through day 29 until the average size was almost 50 mm^2. […] At day 29, mice in the single agent anti-PD-1 treated group received a dose of 30 mg/kg β-alethine subcutaneously, and then weekly thereafter. […] Thus, in total, 9 of 10 mice in either the combination treatment group or the anti-PD-1 rescued with β-alethine group had complete regression of their tumors.

[4] = system: monocytes expressing PD-L1; test: Ex vivo treatment of dog white blood cells, PD-L1 on monocytes by flow cytometry; type: cell-based; conditions: 0-1000 uM, 24 hours incubation, autologous serum; in some of the dogs (three healthy, three with cancer)
Description: In this study, white blood cells and serum were isolated from three healthy dogs and three dogs with cancer. Two dogs had osteosarcoma (Cancer_1 and Cancer_2 in FIG. 5) and one dog had melanoma (Cancer_3 in FIG. 5). Isolated white blood cells were grown in culture with autologous dog serum and varying doses of β-alethine (0-1000 uM). After 24 hours of incubation with β-alethine, monocytes were isolated and were examined for PD-L1 expression using flow cytometry analysis and a canine-specific anti-PD-L1 antibody. […] Further is documents cross species activity of BA. Current human clinical trials with immune checkpoint inhibitors also include antibodies antagonistic to PD-L1. Thus, β-alethine could also be used synergistically with anti-PD-L1 therapies.

NS-1 mouse myeloma = conditions: repeated administration as monotherapy soon after inoculation with relatively low doses of tumor; cited from earlier work
Cloudman S-91 melanomas = conditions: melanomas already established; cited from earlier work
MT-1 tumor xenograft = conditions: cited from earlier work
lymphoma = conditions: single agent; cited from earlier work
[5] = in vivo; cited from earlier work
[6] = system: human peripheral blood mononuclear cells; conditions: polarized Th1 response; cited from earlier work
multiple myeloma = multiple myeloma (Benson et al., 2012); cited from earlier work
[7] = Post-, 48 hours after β-alethine s.c.
[8] = Post-β-alethine, blood 48 hours after one s.c. injection of 30 mg/kg

## NCCC(=O)NCCSSCCNC(=O)CCN [β-alethine, 3-amino-N-(2-{[2-(3-aminopropanamido)ethyl]disulfanyl}ethyl)propenamide]
[1]; 48 hours after one s.c. injection of 30 mg/kg vs before
  number of molecule per cell (mean fluorescent intensity MFI) on cells that continued to have checkpoint molecule expression: specific reduction
[1]; FIG. 1A, 48 hours after one s.c. injection of 30 mg/kg vs before
  percentages of CD4 and CD8 T cells expressing PD-1, Lag3, or Tim3: reduced percentages
[1]; [7]
  % CD8+ of white blood cells: 0.9%
  CD4-Lag3, percentage of cells expressing checkpoint inhibitor: 2.1%
  CD4-PD1, percentage of cells expressing checkpoint inhibitor: 4.4%
  CD4-Tim3, percentage of cells expressing checkpoint inhibitor: 1.3%
  CD8-Lag3, percentage of cells expressing checkpoint inhibitor: 0.1%
  CD8-PD1, percentage of cells expressing checkpoint inhibitor: 1.2%
  CD8-Tim3, percentage of cells expressing checkpoint inhibitor: 0.2%
[1]; [8]
  CD4-Lag3+ checkpoint inhibitor expression: 55 MFI
  CD4-PD1+ checkpoint inhibitor expression: 153 MFI
  CD4-Tim3+ checkpoint inhibitor expression: 93 MFI
  CD8-Lag3+ checkpoint inhibitor expression: 627 MFI
  CD8-PD1+ checkpoint inhibitor expression: 259 MFI
  CD8-Tim3 checkpoint inhibitor expression: 1283 MFI
[2]; 30 mg/kg i.t. on day 55 after s.c. injections, seen on day 66
  tumor response of second mouse after intratumoral injection: complete regression of the tumor
[2]; 30 mg/kg i.t. on days 55, 68, 82
  tumor size of remaining mouse after series of i.t. injections: decrease in tumor size
[2]; 30 mg/kg i.t. on days 55, 68, 82 after s.c. injections
  start of tumor regression in the remaining mouse: ~70 day post-tumor cell injection
[2]; 30 mg/kg s.c. at days 38, 46, 52, three mice, at day 56 post-tumor cell injection
  complete tumor regression after s.c. injections: one of the mice demonstrated a complete tumor regression
[2]; i.t. injections of 30 mg/kg in the mouse
  local or systemic side effects: not associated with any perceivable local or systemic side effects
[3]; High dose: 30 mg/kg s.c. once a week from day 15
  tumor growth (tumor size): delayed tumor growth temporarily
[3]; Low dose: 30 ng/kg s.c. once a week from day 15
  tumor growth (tumor size): delayed tumor growth temporarily
[3]; low dose or high dose β-alethine alone
  toxicity: no obvious toxicity was observed
[4]
  percentages of monocytes expressing PD-L1: reduced the percentages of monocytes expressing PD-L1
NS-1 mouse myeloma
  survival rates: significantly increased survival rates
Cloudman S-91 melanomas
  percent survival: increase the percent survival
MT-1 tumor xenograft; adjunct to chemotherapy
  effectiveness of chemotherapy for late stage breast cancer: increase effectiveness of chemotherapy
  toxicity due to the chemotherapy: did not increase toxicity due to the chemotherapy
MT-1 tumor xenograft; breast cancer
  localized tumor growth: effective in treating localized tumor growth
lymphoma
  drug related adverse events: no local or systemic drug related adverse events; also recorded: no drug-related adverse events
  tumor size in lymphoma patients not anergic to recall antigens pre-trial: reduction or stabilization in tumor sized in all patients with lymphoma who were not anergic to recall antigens pre-trial; also recorded: shrinkage or stabilization in all patients with lymphoma who were not anergic to recall antigens pre-trial
[5]
  toxicity in animals: non-toxic
[6]
  IFN-γ production: increased IFN-γ production
  IL-10 expression: depressed IL-10 expression
  T cell activation and proliferation: increased T cell activation and proliferation

## IPH2101: anti-KIR antibody (Innate Pharma)
Multiple myeloma
  anti-tumor activity: demonstrated anti-tumor activity

## lirlumab: anti-KIR antibody (Innate Pharma)
Multiple myeloma
  anti-tumor activity: demonstrated anti-tumor activity
